These results are taken from patent US9914730B2, “Azaquinazoline inhibitors of Atypical protein Kinase C” (Ignyta, Inc., priority 2012, dated 2018).

This experiment addresses T1, full-length human PKCι (Homo sapiens, UniProt P41743).
T1 construct: Recombinant, full-length human PKCι expressed in Sf21 insect cells is also commercially available; purchased; host or cells: Sf21 insect cells
T1 sequence (P41743 1-596): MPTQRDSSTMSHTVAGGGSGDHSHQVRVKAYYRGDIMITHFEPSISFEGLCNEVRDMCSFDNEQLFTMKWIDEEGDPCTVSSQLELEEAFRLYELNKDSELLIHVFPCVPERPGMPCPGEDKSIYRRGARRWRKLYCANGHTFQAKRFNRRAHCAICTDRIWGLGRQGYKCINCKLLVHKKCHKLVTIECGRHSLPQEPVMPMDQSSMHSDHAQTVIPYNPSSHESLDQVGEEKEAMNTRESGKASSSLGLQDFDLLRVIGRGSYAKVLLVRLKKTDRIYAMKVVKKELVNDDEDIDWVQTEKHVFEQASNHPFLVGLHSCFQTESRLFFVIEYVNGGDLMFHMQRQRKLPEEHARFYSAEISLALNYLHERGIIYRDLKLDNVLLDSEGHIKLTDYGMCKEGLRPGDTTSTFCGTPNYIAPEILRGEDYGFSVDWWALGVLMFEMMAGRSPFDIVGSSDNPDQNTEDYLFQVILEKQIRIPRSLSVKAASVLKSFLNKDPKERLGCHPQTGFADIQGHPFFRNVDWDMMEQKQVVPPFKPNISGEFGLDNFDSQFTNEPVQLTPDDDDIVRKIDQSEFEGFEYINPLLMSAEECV
The experiment in a line: PKCι IC50 IMAP assay, full-length PKCι at 150 μM ATP. In kind it is biochemical. Particulars: read-out: IC50 in IMAP assay against full length PKCi at 150 μM ATP. A digest of the protocol: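 Recombinant full-length human PKCι (Sf21-expressed, typically 15 pM) phosphorylated 100 nM 5FAM-labelled PKCε pseudosubstrate-derived peptide with 150 μM ATP (5× KM^APP) in 18 mM tris-HCl pH7.5, 9 mM MgCl2, EGTA, DTT, 4% DMSO. After 60 min at room temperature, IMAP binding reagent was added for 2 h and fluorescence polarisation read.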

Structures can show the parent of a compound that is named as a salt.

One may read the IC50 as the point on the concentration scale where inhibition reaches its midpoint. As to `Fc1nc(C2CC2)ccc1Nc1cc(-c2nc(N3CCNCC3)c3c(C4CC4)cncc3n2)ccn1` [Example 725, (6-Cyclopropyl-2-fluoro-pyridin-3-yl)-[4-(5-cyclopropyl-4-piperazin-1-yl-pyrido[3,4-d]pyrimidin-2-yl)-pyridin-2-yl]-amine; bis-trifluoroacetic acid salt], the half-inhibitory concentration (IC50) was less than 0.1 µM.

For `FC(F)(F)CN1CCC(Nc2cc(-c3nc(N4CCNCC4)c4c(C5CC5)cncc4n3)ccn2)CC1` [Example 814, [4-(5-Cyclopropyl-4-piperazin-1-yl-pyrido[3,4-d]pyrimidin-2-yl)-pyridin-2-yl]-[1-(2,2,2-trifluoro-ethyl)-piperidin-4-yl]-amine], the IC50 was less than 0.1 µM.

Consider `COc1cncc2nc(-c3ccnc(Nc4ccccc4)c3)nc(N3CCN(CCO)CC3)c12` [Example 432, 2-{4-[5-Methoxy-2-(2-phenylamino-pyridin-4-yl)-pyrido[3,4-d]pyrimidin-4-yl]-piperazin-1-yl}-ethanol], for which the IC50 was in the range of 0.1 to 1 µM.

As to `CN1CCN(c2cccc(Nc3cc(-c4nc(N5CCC(O)C(O)C5)c5c(C6CC6)cncc5n4)ccn3)c2)CC1` (single isomer, unassigned) [Example 753, (3S,4S or 3R,4R)-1-(5-Cyclopropyl-2-{2-[3-(4-methyl-piperazin-1-yl)-phenylamino]-pyridin-4-yl}-pyrido[3,4-d]pyrimidin-4-yl)-piperidine-3,4-diol], the IC50 is less than 0.1 µM.

Take `COc1cccc(CC(=O)Nc2cc(-c3nc(N[C@@H]4CCNC4)c4ccncc4n3)ccn2)c1` [Example 337, 2-(3-Methoxy-phenyl)-N-{4-[4-((R)-pyrrolidin-3-ylamino)-pyrido[3,4-d]pyrimidin-2-yl]-pyridin-2-yl}-acetamide]: the IC50 is less than 0.1 µM.

For `CN(C)[C@H](CNc1nc(-c2ccncc2)nc2cnccc12)Cc1ccccc1` [Example 25, N,N-Dimethyl[(2S)-1-phenyl-3-{[2-(pyridin-4-yl)-pyrido[3,4-d]-pyrimidin-4-yl]-amino}propan-2-yl]amine], the IC50 lay within 0.1 to 1 µM.

Regarding `COc1cncc2nc(-c3ccnc(Nc4ccc(CC(N)=O)cc4)c3)nc(N[C@@H]3CCNC3)c12` [Example 326, 2-(4-{4-[5-Methoxy-4-((R)-pyrrolidin-3-ylamino)-pyrido[3,4-d]pyrimidin-2-yl]-pyridin-2-ylamino}-phenyl)-acetamide], the half-maximal inhibitory concentration (IC50) was in the range of 0.1 to 1 µM.

In the case of `CN(c1nc(-c2ccnc(Nc3nc(F)c(F)cc3F)c2)nc2c(Cl)ncc(C3CC3)c12)C1CCNCC1` [Example 2169, {8-Chloro-5-cyclopropyl-2-[2-(3,5,6-trifluoro-pyridin-2-ylamino)-pyridin-4-yl]-pyrido[3,4-d]pyrimidin-4-yl}-methyl-piperidin-4-yl-amine], the IC50 is less than 0.1 µM.

Consider `FC(F)(F)c1cc2c(-c3nc(N4CCNCC4)c4c(C5CCCC5)cncc4n3)ccnc2[nH]1` [Example 2105, 5-Cyclopentyl-4-piperazin-1-yl-2-(2-trifluoromethyl-1H-pyrrolo[2,3-b]pyridin-4-yl)-pyrido[3,4-d]pyrimidine], for which the IC50 is less than 0.1 µM.

For the molecule `CN1CCN(c2cccc(Nc3cc(-c4nc(N5CC[C@@H](CO)C5)c5c(C6CC6)cncc5n4)ccn3)c2)CC1` [Example 721, [(R)-1-(5-Cyclopropyl-2-{2-[3-(4-methyl-piperazin-1-yl)-phenylamino]-pyridin-4-yl}-pyrido[3,4-d]pyrimidin-4-yl)-pyrrolidin-3-yl]-methanol], the IC50 is less than 0.1 µM.

For the molecule `CS(=O)(=O)CCN1CCN(c2nc(-c3ccnc(Nc4ccccc4)c3)nc3cncc(C4CC4)c23)CC1` [Example 663, (4-{5-Cyclopropyl-4-[4-(2-methanesulfonyl-ethyl)-piperazin-1-yl]-pyrido[3,4-d]pyrimidin-2-yl}-pyridin-2-yl)-phenyl-amine], the concentration for half-maximal inhibition (IC50) fell in the range of 0.1 to 1 µM.

Regarding `COc1ccccc1-c1nccc2c(NC[C@@H](N)Cc3ccccc3)nc(-c3ccncc3)nc12` [Example 93, N-[(2S)-2-amino-3-phenylpropyl]-8-(2-methoxy-phenyl)-2-(pyridin-4-yl)-pyrido[3,4-d]-pyrimidin-4-amine], the IC50 was in the range of 0.1 to 1 µM.

Regarding `COc1cncc2nc(-c3ccncc3)nc(N3CCNC(C(F)(F)F)C3)c12` (stereo not shown) [Example 43, 1-[5-methoxy-2-(pyridin-4-yl)pyrido[3,4-d]-pyrimidin-4-yl]-3-(trifluoromethyl)-piperazine], the half-maximal inhibitory concentration (IC50) fell in the range of 1 to 10 µM.

For `c1cc(-c2nc(N3CCNCC3)c3c(C4CC4)cncc3n2)cc(Nc2ccc3c(c2)CCC3)n1` [Example 2124, [4-(5-Cyclopropyl-4-piperazin-1-yl-pyrido[3,4-d]pyrimidin-2-yl)-pyridin-2-yl]-indan-5-yl-amine], the IC50 is less than 0.1 µM.

On to `Fc1cc(F)c(Nc2cc(-c3nc(N4CCNCC4)c4c(C5CCC5)cncc4n3)ccn2)nc1F` [Example 807, [4-(5-Cyclobutyl-4-piperazin-1-yl-pyrido[3,4-d]pyrimidin-2-yl)-pyridin-2-yl]-(3,5,6-trifluoro-pyridin-2-yl)-amine], for which the IC50 was less than 0.1 µM.

With `FC(F)(F)C1CN(c2nc(-c3ccnc(NC4CC4)c3)nc3cncc(C4CC4)c23)CCN1` (stereo not shown) [Example 508, Cyclopropyl-{4-[5-cyclopropyl-4-(3-trifluoromethyl-piperazin-1-yl)-pyrido[3,4-d]pyrimidin-2-yl]-pyridin-2-yl}-amine], the half-maximal inhibitory concentration (IC50) is less than 0.1 µM.

For the molecule `COc1cncc2nc(-c3ccncc3)nc(N3CCC(N)(C(=O)Nc4ccccc4)C3)c12` (stereo not shown) [Example 153, 3-Amino-1-(5-methoxy-2-pyridin-4-yl-pyrido[3,4-d]pyrimidin-4-yl)-pyrrolidine-3-carboxylic acid phenylamide], the half-maximal inhibitory concentration (IC50) fell in the range of 1 to 10 µM.

Regarding `N[C@H]1CCCN(c2nc(-c3ccnc(Nc4ncc(F)cc4F)c3)nc3cncc(C4CC4)c23)C1` [Example 2198, {4-[4-(3-Amino-piperidin-1-yl)-5-cyclopropyl-pyrido[3,4-d]pyrimidin-2-yl]-pyridin-2-yl}-(3,5-difluoro-pyridin-2-yl)-amine], the IC50 is less than 0.1 µM.

Take `FC(F)(F)CC1CN(c2nc(-c3ccnc(Cl)c3)nc3cncc(C4CC4)c23)CCN1` (stereo not shown) [Example 615, 2-(2-Chloro-pyridin-4-yl)-5-cyclopropyl-4-[3-(2,2,2-trifluoro-ethyl)-piperazin-1-yl]-pyrido[3,4-d]pyrimidine]: the concentration for half-maximal inhibition (IC50) fell in the range of 0.1 to 1 µM.

Consider `c1ccc2nc(Nc3cc(-c4nc(N5CCNCC5)c5c(C6CC6)cncc5n4)ccn3)ccc2c1` [Example 2078, [4-(5-Cyclopropyl-4-piperazin-1-yl-pyrido[3,4-d]pyrimidin-2-yl)-pyridin-2-yl]-[D4],[D3]uinolin-2-yl-amine], for which the IC50 is less than 0.1 µM.

Consider `COc1cncc2nc(-c3ccncc3)nc(N3CCN(CC(N)=O)[C@@H](Cc4ccccc4)C3)c12` [Example 48, 2-[(2S)-2-benzyl-4-[5-methoxy-2-(pyridin-4-yl)-pyrido[3,4-d]-pyrimidin-4-yl]-piperazin-1-yl]acetamide], for which the IC50 is 1 to 10 µM.

For the molecule `Fc1cccnc1-c1cc2c(-c3nc(N4CCNCC4)c4c(C5CC5)cncc4n3)ccnc2[nH]1` [Example 2179, 5-Cyclopropyl-2-[2-(3-fluoro-pyridin-2-yl)-1H-pyrrolo[2,3-b]pyridin-4-yl]-4-piperazin-1-yl-pyrido[3,4-d]pyrimidine], the concentration for half-maximal inhibition (IC50) is less than 0.1 µM.

With `CCOc1ccc(F)c(Nc2cc(-c3nc(N4CCNCC4)c4c(C5CC5)cncc4n3)ccn2)c1F` [Example 567, [4-(5-Cyclopropyl-4-piperazin-1-yl-pyrido[3,4-d]pyrimidin-2-yl)-pyridin-2-yl]-(3-ethoxy-2,6-difluoro-phenyl)-amine], the IC50 was less than 0.1 µM.

In the case of `Cn1ccc(Nc2cc(-c3nc(N4CCNCC4)c4c(C5CC5)cncc4n3)ccn2)n1` [Example 600, [4-(5-Cyclopropyl-4-piperazin-1-yl-pyrido[3,4-d]pyrimidin-2-yl)-pyridin-2-yl]-(l-methyl-1H-pyrazol-3-yl)-amine], the IC50 lay within 1 to 10 µM.

In the case of `N[C@H](CNc1nc(-c2ccncc2)nc2c(-c3ccco3)nccc12)Cc1ccccc1` [Example 115, N-[(2S)-2-amino-3-phenylpropyl]-8-(furan-2-yl)-2-(pyridin-4-yl)pyrido[3,4-d]pyrimidin-4-amine], the IC50 was less than 0.1 µM.

Turning to `OC1CN(c2nc(-c3ccnc(Nc4cccc(N5CCNCC5)c4)c3)nc3cncc(C4CC4)c23)C1` [Example 778, 1-{5-Cyclopropyl-2-[2-(3-piperazin-1-yl-phenylamino)-pyridin-4-yl]-pyrido[3,4-d]pyrimidin-4-yl}-azetidin-3-ol], the half-inhibitory concentration (IC50) is less than 0.1 µM.

On to `COc1cncc2nc(-c3ccncc3)nc(N3CC[C@@H](N)C3)c12` [Example 45, (3R)-1-[5-methoxy-2-(pyridin-4-yl)-pyrido[3,4-d]-pyrimidin-4-yl]-pyrrolidin-3-amine], for which the IC50 is 1 to 10 µM.

On to `[2H]C([2H])([2H])c1cc2c(-c3nc(N4CCNCC4)c4c(C5CC5)cncc4n3)ccnc2[nH]1` [Example 1228, 5-Cyclopropyl-4-piperazin-1-yl-2-(2-triduteriomethyl-1H-pyrrolo[2,3-b]pyridin-4-yl)-pyrido[3,4-d]pyrimidine], for which the concentration for half-maximal inhibition (IC50) was less than 0.1 µM.
